Assay results published in patent publication US20240116962A1, “PYRIDINE-2-AMINE DERIVATIVE AND PHARMACEUTICAL COMPOSITION AND USE THEREOF” (TSINGHUA UNIVERSITY, priority 2020, published 2024).
Like-named read-outs stand apart in the source and are kept apart here.

How the values were obtained:
hTLR7 = target: T1, hTLR7 (Homo sapiens, UniProt Q9NYK1); assay: EC50 assay for small molecule agonists, HEK-Blue hTLR7 cells, SEAP readout; type: cell-based; conditions: agonist activity, nd = EC50 larger than 25 μM
T1 construct: host or cells: HEK-Blue hTLR7 (HEK293-derived reporter cells with SEAP read-out)
T1 sequence (Q9NYK1 27-1049): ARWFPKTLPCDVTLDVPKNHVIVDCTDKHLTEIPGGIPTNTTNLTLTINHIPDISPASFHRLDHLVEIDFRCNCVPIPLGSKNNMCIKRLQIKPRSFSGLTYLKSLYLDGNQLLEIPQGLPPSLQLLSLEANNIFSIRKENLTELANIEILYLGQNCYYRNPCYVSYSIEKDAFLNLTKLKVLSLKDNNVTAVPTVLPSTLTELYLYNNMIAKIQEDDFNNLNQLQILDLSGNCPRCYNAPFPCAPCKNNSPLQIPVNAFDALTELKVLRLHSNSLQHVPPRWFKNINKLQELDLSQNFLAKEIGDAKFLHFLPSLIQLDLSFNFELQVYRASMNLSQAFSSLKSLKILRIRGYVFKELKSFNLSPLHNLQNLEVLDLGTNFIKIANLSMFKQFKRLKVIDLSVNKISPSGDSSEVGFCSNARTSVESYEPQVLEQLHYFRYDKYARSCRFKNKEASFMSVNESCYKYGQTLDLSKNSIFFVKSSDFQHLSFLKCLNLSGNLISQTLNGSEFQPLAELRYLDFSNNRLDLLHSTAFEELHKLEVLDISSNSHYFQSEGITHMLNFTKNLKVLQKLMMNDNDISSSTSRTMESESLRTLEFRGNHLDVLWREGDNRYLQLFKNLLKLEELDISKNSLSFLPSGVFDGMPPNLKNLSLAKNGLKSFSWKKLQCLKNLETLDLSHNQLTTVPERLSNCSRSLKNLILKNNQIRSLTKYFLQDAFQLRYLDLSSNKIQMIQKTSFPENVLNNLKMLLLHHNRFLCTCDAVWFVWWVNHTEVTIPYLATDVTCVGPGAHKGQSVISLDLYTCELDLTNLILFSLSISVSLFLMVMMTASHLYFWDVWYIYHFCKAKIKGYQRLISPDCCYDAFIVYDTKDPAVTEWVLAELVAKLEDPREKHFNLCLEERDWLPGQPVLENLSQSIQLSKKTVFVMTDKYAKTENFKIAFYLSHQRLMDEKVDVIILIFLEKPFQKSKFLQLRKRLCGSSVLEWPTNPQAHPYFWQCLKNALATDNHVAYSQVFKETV
Method: (§1) Reagents used for cell culture and detection for HEK-Blue™ hTLR7, HEK-Blue™ hTLR8 and control HEK-Blue Nu112k were as follows: DMEM (4.5 g/L glucose), bovine serum FBS, streptomycin ([…]), penicillin (50 U/mL), Blasticidin (10 mg/mL), Zeocin™ (10 mg/mL), Normocin (50 mg/mL), and HEK-Blue™ Detection. Basal medium was as follows: DMEM +10% FBS+streptomycin+penicillin+Normocin ([…]); selective medium for resistance genes was as follows: DMEM+10% FBS+streptomycin+penicillin+Normocin (1001 μg/mL)+Blasticidin (1001 μg/mL)+Zeocin™ (1001 μg/mL).
(§2) Cell preparation: HEK-Blue™ hTLR7 and HEK-Blue™ hTLR8 cell lines were purchased from Invivogen. The cells frozen in liquid nitrogen were taken, quickly placed in a water bath at 37° C., shaken occasionally, and completely melted within 1 min. The cells were transferred to 15 mL of pre-heated basal medium and resuspended; centrifuged at 1,000 r/min for 5 min, supernatant discarded; resuspended with 1 mL of basal medium, transferred to a T25 culture flask, supplemented to 5 mL with the medium, and incubated in an incubator at 37° C.; after stable passage twice, and subjected to selective antibiotic screening: HEK-Blue™ hTLR7 or HEK-Blue™ hTLR8: 100 μg/mL Zeocin+Blasticidin (30 μg/mL), HEK-Blue Nu112-k: 100 μg/mL Zeocin. The fluid was changed 3 times a week. When the number of cells reached 70%-80%, PBS was added, and the cells were exfoliated by gently pipetting.
(§3) Activity assay steps: (1) adding a test sample to a 96-well plate at 20 μL/well (triplicate wells were set); (2) adding 20 μL of positive control (e.g., R848), and adding 20 μL of negative control (e.g., ddH2O); (3) removing a T75 culture flask from the incubator, discarding the medium, adding 5-10 mL of pre-heated PBS, and gently pipetting the cells; adding 2-5 mL of PBS to the culture flask, incubating the culture flask in the incubator for 1-2 min, and then gently pipetting the cells to make them exfoliated; (4) mixing the mixture well, and counting the cells, without centrifugation; resuspending the cells with HEK-Blue™ assay solution and adjusting the cell number, taking care not to incubate for a long time to avoid too deep background or false positive. HEK-Blue hTLR cell number was about 2.2×10^5/mL, 180 μL/well (about 40000 cells), and HEK-Blue Nu112-k cell number was about 2.8×10^5/mL, 180 μL/well (about 50000 cells). (5) incubating the cells in the incubator at 37° C. for 6-16 h, and detecting at 620-655 nm for SEAP readings.
(§4) Effect %=(mean OD of the administration group−mean OD of the H2O group at each concentration)/(mean ODmax of the positive drug group−mean OD of the H2O group)×100. EC50 was calculated by fitting Lg [concentration]-effect curves using GraphPad Prism5 software.
(§5) Experimental results: the concentration for 50% of maximal effect (EC50) refers to a corresponding concentration of small molecules that can cause 50% of the maximal agonistic effect. […] EC50 represents a potency for agonizing the TLR8 receptor, with smaller values indicating better efficacy. […] In the following table, the unit of the agonist activity is nanomole, unless otherwise specified.

hTLR8 = target: T2, hTLR8 (Homo sapiens, UniProt Q9NR97); assay: EC50 assay for small molecule agonists, HEK-Blue hTLR8 cells, SEAP readout; type: cell-based
T2 construct: host or cells: HEK-Blue hTLR8 (HEK293-derived reporter cells with SEAP read-out)
T2 sequence (Q9NR97 27-1041): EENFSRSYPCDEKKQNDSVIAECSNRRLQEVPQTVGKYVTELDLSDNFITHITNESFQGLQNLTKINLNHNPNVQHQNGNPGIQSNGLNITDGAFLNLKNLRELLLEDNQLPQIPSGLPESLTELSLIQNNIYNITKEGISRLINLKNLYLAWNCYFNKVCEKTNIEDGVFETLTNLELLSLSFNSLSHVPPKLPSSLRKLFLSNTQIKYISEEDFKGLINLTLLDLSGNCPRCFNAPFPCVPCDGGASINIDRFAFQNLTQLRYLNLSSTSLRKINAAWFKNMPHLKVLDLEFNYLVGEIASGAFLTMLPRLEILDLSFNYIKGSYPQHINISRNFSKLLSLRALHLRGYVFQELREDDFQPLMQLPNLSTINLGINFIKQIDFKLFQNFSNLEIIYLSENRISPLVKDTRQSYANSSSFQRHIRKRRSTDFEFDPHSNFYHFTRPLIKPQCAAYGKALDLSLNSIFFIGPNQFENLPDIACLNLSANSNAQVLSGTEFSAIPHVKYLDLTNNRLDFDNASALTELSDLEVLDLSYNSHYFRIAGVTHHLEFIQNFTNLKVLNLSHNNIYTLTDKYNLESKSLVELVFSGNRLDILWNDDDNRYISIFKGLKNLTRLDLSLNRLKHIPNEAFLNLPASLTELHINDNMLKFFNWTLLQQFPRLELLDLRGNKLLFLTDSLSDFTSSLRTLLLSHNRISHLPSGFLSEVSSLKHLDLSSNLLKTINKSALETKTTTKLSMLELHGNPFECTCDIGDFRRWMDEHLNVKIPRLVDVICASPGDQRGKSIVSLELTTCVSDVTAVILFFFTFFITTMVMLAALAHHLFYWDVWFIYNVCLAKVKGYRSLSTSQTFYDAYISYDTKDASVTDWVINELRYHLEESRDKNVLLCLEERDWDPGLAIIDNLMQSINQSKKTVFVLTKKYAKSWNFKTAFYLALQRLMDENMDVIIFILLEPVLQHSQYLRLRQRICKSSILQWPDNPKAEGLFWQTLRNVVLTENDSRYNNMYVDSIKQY
Method: as §1, §2, §3, §4, §5

[1] = agonist activity, read-out: hTLR8(EC50)

Row | EC50 (hTLR7) | EC50 (hTLR8; [1]) | EC50 (hTLR8; read-out: concentration for 50% of maximal effect (EC50) hTLR8) | SMILES
1 | > 25 µM | 0.398 µM |  | CCCCCc1cc2nc(Cc3ccc(CN(C)C)cc3)ccc2nc1N [Compound N1]
2 | > 25 µM | 0.48 µM |  | CCCCCc1cc2nc(Cc3ccc(CN4CCCC4)cc3)ccc2nc1N [Compound N2]
3 | > 25 µM | 1.58 µM |  | CCCCCc1cc2nc(Cc3ccc(CN4CCOCC4)cc3)ccc2nc1N [Compound N3]
4 | > 25 µM | 0.058 µM |  | CCCCCc1cc(Cc2ccc(CN(C)C)cc2)c(C)nc1N [Compound N4]
5 | > 25 µM | 0.122 µM |  | CCCCCc1cc(Cc2ccc(CN)cc2)c(C)nc1N [Compound N5]
6 | > 25 µM | 0.084 µM |  | CCCCCc1cc(Cc2ccc(CNC)cc2)c(C)nc1N [Compound N6]
7 | > 25 µM | 0.063 µM |  | CCCCCc1cc(Cc2ccc(CN3CCCC3)cc2)c(C)nc1N [Compound N7]
8 | > 25 µM | 0.428 µM |  | CCCCCc1cc(Cc2ccc(CN3CCOCC3)cc2)c(C)nc1N [Compound N8]
9 | > 25 µM | 0.054 µM | 0.04 µM | CCCCCc1cc(Cc2ccc(CN3CCCCC3)cc2)c(C)nc1N [Compound N9]
10 | > 25 µM | 0.134 µM |  | CCCCCc1cc(Cc2ccc(CN3CCNCC3)cc2)c(C)nc1N [Compound N10]
11 | > 25 µM | 0.151 µM |  | CCCCCc1cc(Cc2ccc(CN3CCN(C)CC3)cc2)c(C)nc1N [Compound N11]
12 | > 25 µM | 0.109 µM |  | CCCCCc1cc(Cc2ccc(CN3CCCCCC3)cc2)c(C)nc1N [Compound N12]
13 | > 25 µM | 3 µM |  | CCCCCc1cc(Cc2ccc(CN(C)CC(=O)OC)cc2)c(C)nc1N [Compound N13]
14 | > 25 µM | > 4 µM |  | CCCCCc1cc(Cc2ccc(CN(C)CC(=O)O)cc2)c(C)nc1N [Compound N14]
15 | > 25 µM | 0.628 µM |  | CCCCCc1cc(Cc2ccc(CN(C)CCC(=O)OC)cc2)c(C)nc1N [Compound N15]
16 | > 25 µM | > 4 µM |  | CCCCCc1cc(Cc2ccc(CN(C)CCC(=O)O)cc2)c(C)nc1N [Compound N16]
17 | > 25 µM | 0.121 µM |  | CCCCCc1cc(Cc2ccc(CN3CCC3)cc2)c(C)nc1N [Compound N17]

Row | EC50 (hTLR7) | EC50 (hTLR8; [1]) | EC50 (hTLR8; read-out: concentration for 50% of maximal effect (EC50) hTLR8) | SMILES
18 | > 25 µM | 0.124 µM |  | CCCCCc1cc(Cc2ccc(CN3CC[C@H](O)C3)cc2)c(C)nc1N [Compound N18]
19 | > 25 µM | 0.104 µM |  | CCCCCc1cc(Cc2ccc(CN3CC[C@@H](O)C3)cc2)c(C)nc1N [Compound N19]
20 | > 25 µM | 0.13 µM |  | CCCCCc1cc(Cc2ccc(CNC3CC3)cc2)c(C)nc1N [Compound N20]
21 | > 25 µM | 0.117 µM |  | CCCCCc1cc(Cc2ccc(CN3CC(O)C3)cc2)c(C)nc1N [Compound N21]
22 | > 25 µM | 0.081 µM |  | CCCCCc1cc(Cc2ccc(CN3CC4(COC4)C3)cc2)c(C)nc1N [Compound N22]
23 | > 25 µM | 0.08 µM |  | CCCCCc1cc(Cc2ccc(CN(C)C)cc2F)c(C)nc1N [Compound N23]
24 | > 25 µM | 0.113 µM |  | CCCCCc1cc(Cc2ccc(CN3CC4(COC4)C3)cc2F)c(C)nc1N [Compound N24]
25 | > 25 µM | > 4 µM |  | CCCCCc1cc(Cc2ccc(CN(C)CCOCCOCCC(F)(F)P(=O)(O)O)cc2)c(C)nc1N [Compound N26]
26 | > 25 µM | > 4 µM |  | CCCCCc1cc(Cc2ccc(COC)cc2)c(C)nc1N [Compound N27]
27 | > 25 µM | > 4 µM |  | COCCCc1cc(Cc2ccc(CN(C)C)cc2)c(C)nc1N [Compound N28]
28 | > 25 µM | > 4 µM |  | COCCCc1cc(Cc2ccc(CN3CCCC3)cc2)c(C)nc1N [Compound N29]
29 | > 25 µM | > 4 µM |  | COCCCc1cc(Cc2ccc(CN3CCN(C)CC3)cc2)c(C)nc1N [Compound N30]
30 | > 25 µM | 0.248 µM |  | CCCCCc1cc(Cc2ccc(CN(C)C)cc2)cnc1N [Compound N31]
31 | > 25 µM | 0.29 µM |  | CCCCCc1cc(Cc2cccc(CN(C)C)c2)c(C)nc1N [Compound N32]
32 | > 25 µM | > 4 µM |  | CCCCCc1cc(Cc2ccccc2CO)c(C)nc1N [Compound N33]
33 | > 25 µM | > 4 µM |  | CCCCCc1cc(Cc2ccccc2CN(C)C)c(C)nc1N [Compound N34]
34 | > 25 µM | > 4 µM |  | CCCCCc1cc(Cc2ccccc2CN2CCCC2)c(C)nc1N [Compound N35]

Row | SMILES | EC50 (hTLR7) | EC50 (hTLR8; [1]) | EC50 (hTLR8; read-out: concentration for 50% of maximal effect (EC50) hTLR8)
35 | CCCCCc1cc(Cc2ccc(CN(C)CCOCCOCCC(F)(F)P(=O)(OCC)OCC)cc2)c(C)nc1N [Compound N25] | > 25 µM | > 4 µM | 
